Data from PMC3380172 (Journal of the American Chemical Society, 2012).
Read-outs that look alike come from different tables or passages of the source.

Experiments:
[1] = target: T1, L232A mutant TbbTIM (Trypanosoma brucei brucei, UniProt P04789, L232A); conditions: 30 mM TEA, pH 7.5, 25 °C, I = 0.1 (NaCl), cited from earlier work
[2] = tested on: E165D chicken TIM; conditions: cited from earlier work
[3] = target: T2, I172V mutant TbbTIM (Trypanosoma brucei brucei, UniProt P04789, I172V); assay: TIM-catalyzed isomerization of DHAP and arsenate inhibition; format: biochemical; conditions: 30 mM TEA, pH 7.5, 25 °C, I = 0.1 (NaCl)
[4] = tested on: wildtype TbbTIM; conditions: cited from earlier work
[5] = target: T3, I172A mutant TbbTIM (Trypanosoma brucei brucei, UniProt P04789, I172A); format: biochemical; conditions: for Fractional Product Yield fE: fraction of the three TIM-catalyzed products, 5 mM GAP, 65 nM I172A, D2O
[6] = tested on: E165D/S96P chicken TIM; conditions: cited from earlier work
[7] = tested on: WT chicken TIM; conditions: cited from earlier work
[8] = target: T1, L232A mutant TbbTIM; format: biochemical; conditions: for Fractional Product Yield fE: fraction of the three TIM-catalyzed products, 5 mM GAP, 3.4 nM L232A, D2O
[9] = target: T3, I172A mutant TbbTIM; assay: TIM-catalyzed isomerization of DHAP and arsenate inhibition; format: biochemical; conditions: 30 mM TEA, pH 7.5, 25 °C, I = 0.1 (NaCl)
[10] = tested on: wildtype TbbTIM; format: biochemical, Trypanosoma brucei brucei; conditions: reaction of GAP in D2O, pD 7.9, 25 °C; from product yields
[11] = target: T1, L232A mutant TbbTIM; conditions: 30 mM TEA, pH 7.5, 25 °C, I = 0.1 (NaCl), cited from earlier work; remark: listed apart in the source
[12] = tested on: WT chicken TIM; conditions: cited from earlier work; remark: listed apart in the source
[13] = tested on: E165D chicken TIM; conditions: cited from earlier work; remark: listed apart in the source
[14] = target: T2, I172V mutant TbbTIM; assay: TIM-catalyzed isomerization of GAP; format: biochemical; conditions: 30 mM TEA, pH 7.5, 25 °C, I = 0.1 (NaCl)
[15] = tested on: E165D/S96P chicken TIM; conditions: cited from earlier work; remark: listed apart in the source
[16] = target: T3, I172A mutant TbbTIM; assay: TIM-catalyzed isomerization of GAP; format: biochemical; conditions: 30 mM TEA, pH 7.5, 25 °C, I = 0.1 (NaCl)
[17] = tested on: wildtype TbbTIM; conditions: 30 mM TEA, pH 7.5, 25 °C, I = 0.1 (NaCl), cited from earlier work
[18] = target: T2, I172V mutant TbbTIM; assay: Reaction of [1-13C]-GA in D2O with and without phosphite dianion, 1H NMR; format: biochemical; conditions: for Average product yield (mole fraction), phosphite dianion-activated reaction / Fractional yield from reaction at the enzyme active site: 20 mM [1-13C]-GA, D2O; for Average product yield (mole fraction), phosphite dianion-activated reaction: pD 7.0, I = 0.1, 25 °C, average over [HPO3^2-]; for Fractional yield from reaction at the enzyme active site: value in parenthesis, [HPO3^2-] 0 mM, pD 7.0, 25 °C
[19] = target: T3, I172A mutant TbbTIM; assay: as above; format: biochemical; conditions: for Average product yield (mole fraction), phosphite dianion-activated reaction: 20 mM [1-13C]-GA, D2O, pD 7.0, I = 0.1, 25 °C, average over [HPO3^2-]
[20] = target: T1, L232A mutant TbbTIM; assay: as above; format: biochemical; conditions: for Average product yield (mole fraction), phosphite dianion-activated reaction: 20 mM [1-13C]-GA, D2O, pD 7.0, I = 0.1, 25 °C, average over [HPO3^2-]
[21] = isomerization of GAP in D2O with intramolecular transfer of hydrogen
[22] = reaction of GAP in D2O, pD 7.9, 25 °C, from product yields
[23] = unactivated reaction of [1-13C]-GA in D2O (no HPO3^2-)
[24] = isomerization of [1-13C]-GA in D2O
[25] = read-out: Ki (arsenate), inhibition of DHAP isomerization

Compound: O=C(CO)COP(=O)(O)O [DHAP, dihydroxyacetone phosphate]
- kcat (DHAP) [1]: 4.7 s⁻¹
- Km ([1]; read-out: Km (DHAP)): 77 µM
- kcat (DHAP) [2]: 4.1 s⁻¹
- Km ([2]; read-out: Km (DHAP)): 1200 µM
- kcat (DHAP) [3]: 65 s⁻¹
- Km ([3]; read-out: Km (DHAP)): 200 µM
- kcat (DHAP) ([4]; 30 mM TEA, pH 7.5, 25 °C, I = 0.1 (NaCl)): 300 s⁻¹
- Km ([4]; read-out: Km (DHAP), 30 mM TEA, pH 7.5, 25 °C, I = 0.1 (NaCl)): 700 µM
- Fractional Product Yield fE ([5]; pD 7.9, 25 °C): 0.13
- yield of product [5, 21]: 13%
- kcat (DHAP) [6]: 3.4 s⁻¹
- Km ([6]; read-out: Km (DHAP)): 53 µM
- kcat (DHAP) [7]: 600 s⁻¹
- Km ([7]; read-out: Km (DHAP)): 650 µM
- Fractional Product Yield fE ([8]; pD 7.9, 25 °C): 0.041
- yield of product [8, 21]: 4%
- kcat (DHAP) [9]: 17 s⁻¹
- Km ([9]; read-out: Km (DHAP)): 3700 µM

Compound: O=C[C@H](O)COP(=O)(O)O [GAP, R-glyceraldehyde 3-phosphate]
- Rate Constant Ratio (kC1)D/(kC2)D [10]: 1.7
- Rate Constant Ratio kex/(kC1)H [10]: 1.5
- kcat (GAP) [11]: 220 s⁻¹
- Km ([11]; read-out: Km (GAP)): 140 µM
- kcat (GAP) [12]: 8300 s⁻¹
- Km ([12]; read-out: Km (GAP)): 420 µM
- Rate Constant Ratio (kC1)D/(kC2)D [5, 22]: 0.74
- Rate Constant Ratio kex/(kC1)H [5, 22]: 6.7
- kcat (GAP) [13]: 4.2 s⁻¹
- Km ([13]; read-out: Km (GAP)): 78 µM
- kcat (GAP) [14]: 225 s⁻¹
- Km ([14]; read-out: Km (GAP)): 58 µM
- kcat (GAP) [15]: 68 s⁻¹
- Km ([15]; read-out: Km (GAP)): 66 µM
- kcat (GAP) [16]: 12 s⁻¹
- Km ([16]; read-out: Km (GAP)): 150 µM
- Rate Constant Ratio (kC1)D/(kC2)D [8, 22]: 8.8
- Rate Constant Ratio kex/(kC1)H [8, 22]: 23
- kcat (GAP) [17]: 2100 s⁻¹
- Km ([17]; read-out: Km (GAP)): 250 µM

Compound: [2H]C([2H])(O)[13CH]=O [[1-^13C, 2,2-di-^2H]-GA]
- yield of product ([18]; reaction of [1-13C]-GA in D2O in the absence of HPO3^2-): 25%
- yield of product [19, 23]: 38%

Compound: [2H]C(O)[13CH]=O (stereo not drawn) [[1-^13C, 2-^2H]-GA]
- Average product yield (mole fraction), phosphite dianion-activated reaction [18]: 0.24 ± 0.02
- Fractional yield from reaction at the enzyme active site [18]: 0.55
- Average product yield (mole fraction), phosphite dianion-activated reaction [20]: 0.51 ± 0.02
- Average product yield (mole fraction), phosphite dianion-activated reaction [19]: 0.30 ± 0.02
- yield of product [19, 23]: 15%

Compound: [2H][13CH](O)C=O (stereo not drawn) [[2-^13C, 2-^2H]-GA]
- Average product yield (mole fraction), phosphite dianion-activated reaction [18]: 0.63 ± 0.01
- Fractional yield from reaction at the enzyme active site [18]: 0.40
- Average product yield (mole fraction), phosphite dianion-activated reaction [20]: 0.48 ± 0.02
- Average product yield (mole fraction), phosphite dianion-activated reaction [19]: 0.25 ± 0.02

Compound: O=C[13CH2]O [[2-^13C]-GA]
- Average product yield (mole fraction), phosphite dianion-activated reaction [18]: 0.13 ± 0.01
- Fractional yield from reaction at the enzyme active site [18]: 0.04
- Average product yield (mole fraction), phosphite dianion-activated reaction [20]: 0.01 ± 0.001
- yield of product [20, 24]: 1%
- Average product yield (mole fraction), phosphite dianion-activated reaction [19]: 0.02 ± 0.001
- yield of product [19, 24]: 2%

Compound: O=[As](O)(O)O [arsenate, arsenate dianion, reference compound]
- Ki [2, 25]: 12 mM
- Ki ([4]; read-out: Ki (competitive inhibitor), arsenate dianion, competitive): 4.6 mM
- Ki [6, 25]: 2.1 mM
- Ki [7, 25]: 11 mM

Compound: [2H]C(O)C(=O)COP(=O)(O)O (stereo not drawn) [d-DHAP]
- Fractional Product Yield fE ([5]; pD 7.9, 25 °C): 0.37
- Fractional Product Yield fE ([8]; pD 7.9, 25 °C): 0.86

Compound: O=C[C@H](O)COP(=O)(O)O [d-GAP]
- Fractional Product Yield fE ([5]; pD 7.9, 25 °C): 0.50
- Fractional Product Yield fE ([8]; pD 7.9, 25 °C): 0.098
